Measurements: patent US6475507B1, “Sustained release compositions and the process for their preparation” (priority 1997, dated 2002)

Experiment: Specific surface area of the active substance by the BET method
Type: physicochemical
Conditions: peptide salt after lyophilization (or starting material)
Experimental: For all these examples, the inherent viscosities (IV) were measured by the conventional methods of flow time measurement, as described for example in “Pharmacopoée Européenne”, 1997, pages 17-18 (capillary tube method). Unless stated otherwise, these viscosities have been measured in chloroform at a concentration of 0.1% at 25° C. or in hexaisofluoropropanol at a concentration of 0.5% at 30° C. Where measured, the specific surface area of the active substance was determined by the so-called BET method (absorption of a nitrogen monolayer on the active substance), a method well known to a person skilled in the art.

| Molecule | Specific surface area |
| --- | --- |
| CC(C)[C@@H]1NC(=O)[C@H](CCCCN)NC(=O)[C@@H](Cc2c[nH]c3ccccc23)NC(=O)[C@H](Cc2ccc(O)cc2)NC(=O)[C@@H](NC(=O)[C@H](N)Cc2ccc3ccccc3c2)CSSC[C@@H](C(=O)N[C@H](C(N)=O)[C@@H](C)O)NC1=O [Example 13, lanreotide acetate] | 36 m^2/g |
| CC(C)[C@@H]1NC(=O)[C@H](CCCCN)NC(=O)[C@@H](Cc2c[nH]c3ccccc23)NC(=O)[C@H](Cc2ccc(O)cc2)NC(=O)[C@@H](NC(=O)[C@H](N)Cc2ccc3ccccc3c2)CSSC[C@@H](C(=O)N[C@H](C(N)=O)[C@@H](C)O)NC1=O [Example 14, lanreotide acetate] | 43 m^2/g |
| CC(C)[C@@H]1NC(=O)[C@H](CCCCN)NC(=O)[C@@H](Cc2c[nH]c3ccccc23)NC(=O)[C@H](Cc2ccc(O)cc2)NC(=O)[C@@H](NC(=O)[C@H](N)Cc2ccc3ccccc3c2)CSSC[C@@H](C(=O)N[C@H](C(N)=O)[C@@H](C)O)NC1=O [modified lanreotide acetate, lanreotide acetate] | 4.4 m^2/g |
| triptorelin acetate [modified triptorelin acetate] | 4.7 m^2/g |
| triptorelin acetate [unmodified triptorelin acetate, reference compound] | 0.8 m^2/g |
